Test system: 429239-143-T-J1-PDC complex spheroid viability
Test: Anticancer human tumor 429239-143-T-J1-PDC patient-derived small cell lung carcinoma cell line growth inhibition [POLQ]
Details: for IC50: curve of first compound; for viability, T/C: stronger effect = lower value
In short: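 PDC + HUVEC + MSC complex spheroids; POLQ inhibitors ± partner drugs; top conc. at/near clinical Cmax, else 10 microM (SN-38 1 microM), half-log dilutions; 37 degrees C, 5% CO2.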

[1] = second compound 0.0316 µM, first compound 0.0316 µM
[2] = second compound 0.0316 µM, first compound 0.1 µM
[3] = second compound 0.0316 µM, first compound 0.316 µM
[4] = second compound 0.0316 µM, first compound 1 µM
[5] = second compound 0.0316 µM, first compound 3.16 µM
[6] = second compound 0.0316 µM, first compound 10 µM
[7] = second compound 0.1 µM, first compound 0.0316 µM
[8] = second compound 0.1 µM, first compound 0.1 µM
[9] = second compound 0.1 µM, first compound 0.316 µM
[10] = second compound 0.1 µM, first compound 1 µM
[11] = second compound 0.1 µM, first compound 3.16 µM
[12] = second compound 0.1 µM, first compound 10 µM
[13] = second compound 0.316 µM, first compound 0.0316 µM
[14] = second compound 0.316 µM, first compound 0.1 µM
[15] = second compound 0.316 µM, first compound 0.316 µM
[16] = second compound 0.316 µM, first compound 1 µM
[17] = second compound 0.316 µM, first compound 3.16 µM
[18] = second compound 0.316 µM, first compound 10 µM
[19] = second compound 1 µM, first compound 0.0316 µM
[20] = second compound 1 µM, first compound 0.1 µM
[21] = second compound 1 µM, first compound 0.316 µM
[22] = second compound 1 µM, first compound 1 µM
[23] = second compound 1 µM, first compound 3.16 µM
[24] = second compound 1 µM, first compound 10 µM
[25] = second compound 3.16 µM, first compound 0.0316 µM
[26] = second compound 3.16 µM, first compound 0.1 µM
[27] = second compound 3.16 µM, first compound 0.316 µM
[28] = second compound 3.16 µM, first compound 1 µM
[29] = second compound 3.16 µM, first compound 3.16 µM
[30] = second compound 3.16 µM, first compound 10 µM
[31] = second compound 10 µM, first compound 0.0316 µM
[32] = second compound 10 µM, first compound 0.1 µM
[33] = second compound 10 µM, first compound 0.316 µM
[34] = second compound 10 µM, first compound 1 µM
[35] = second compound 10 µM, first compound 3.16 µM
[36] = second compound 10 µM, first compound 10 µM
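Note: luminescence signal used as surrogate measure of viable cells; spheroids exposed to compounds for seven days before readout.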
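Throughout, for viability, T/C: 100% = DMSO vehicle control viability as luminescence relative to vehicle.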

CC1COCCN1c1cc(C2(O)CC3CCC(C2)O3)c2cnn(-c3ccn[nH]3)c2n1 (stereo not drawn) + Nc1ccc(C#CCN(C(=O)Cc2ncc(C(F)(F)F)cc2C(F)(F)F)c2ccc(F)cc2)nn1
IC50 (second compound 0.0316 µM): 0.273 µM
IC50 (second compound 0.1 µM): 0.251 µM
IC50 (second compound 0.316 µM): 0.269 µM
IC50 (second compound 1 µM): 0.263 µM
IC50 (second compound 3.16 µM): 0.232 µM
IC50 (second compound 10 µM): 0.187 µM
viability, T/C [1]: 84.1%
viability, T/C [2]: 72%
viability, T/C [3]: 48.2%
viability, T/C [4]: 7.65%
viability, T/C [5]: 3.72%
viability, T/C [6]: 2.1%
viability, T/C [7]: 83.8%
viability, T/C [8]: 70.5%
viability, T/C [9]: 46.3%
viability, T/C [10]: 7.55%
viability, T/C [11]: 3.33%
viability, T/C [12]: 2.36%
viability, T/C [13]: 83.9%
viability, T/C [14]: 71.3%
viability, T/C [15]: 47.9%
viability, T/C [16]: 7.06%
viability, T/C [17]: 3.37%
viability, T/C [18]: 2.33%
viability, T/C [19]: 78.9%
viability, T/C [20]: 69.5%
viability, T/C [21]: 46.8%
viability, T/C [22]: 6.97%
viability, T/C [23]: 3.6%
viability, T/C [24]: 2.11%
viability, T/C [25]: 81.1%
viability, T/C [26]: 70.4%
viability, T/C [27]: 43.1%
viability, T/C [28]: 7.77%
viability, T/C [29]: 3.26%
viability, T/C [30]: 2.52%
viability, T/C [31]: 83.4%
viability, T/C [32]: 66.9%
viability, T/C [33]: 36.4%
viability, T/C [34]: 6.28%
viability, T/C [35]: 3.88%
viability, T/C [36]: 2.51%

O=C(c1cc(Cc2n[nH]c(=O)c3ccccc23)ccc1F)N1CCN(C(=O)C2CC2)CC1 + Nc1ccc(C#CCN(C(=O)Cc2ncc(C(F)(F)F)cc2C(F)(F)F)c2ccc(F)cc2)nn1
IC50 (second compound 0.0316 µM): 4.18 µM
IC50 (second compound 0.1 µM): 3.96 µM
IC50 (second compound 0.316 µM): 4.09 µM
IC50 (second compound 1 µM): 4.13 µM
IC50 (second compound 3.16 µM): 4.25 µM
IC50 (second compound 10 µM): 3.6 µM
viability, T/C [1]: 101%
viability, T/C [2]: 98.4%
viability, T/C [3]: 92.4%
viability, T/C [4]: 84.9%
viability, T/C [5]: 64.8%
viability, T/C [6]: 7.77%
viability, T/C [7]: 96.6%
viability, T/C [8]: 104%
viability, T/C [9]: 90%
viability, T/C [10]: 95.9%
viability, T/C [11]: 60.8%
viability, T/C [12]: 6.66%
viability, T/C [13]: 104%
viability, T/C [14]: 99.1%
viability, T/C [15]: 91.3%
viability, T/C [16]: 81.2%
viability, T/C [17]: 65.8%
viability, T/C [18]: 9.12%
viability, T/C [19]: 105%
viability, T/C [20]: 94.4%
viability, T/C [21]: 88.5%
viability, T/C [22]: 84.9%
viability, T/C [23]: 64.8%
viability, T/C [24]: 8.72%
viability, T/C [25]: 97.6%
viability, T/C [26]: 93.4%
viability, T/C [27]: 90.8%
viability, T/C [28]: 95.2%
viability, T/C [29]: 64.3%
viability, T/C [30]: 8.47%
viability, T/C [31]: 102%
viability, T/C [32]: 92%
viability, T/C [33]: 93.5%
viability, T/C [34]: 88.9%
viability, T/C [35]: 55.4%
viability, T/C [36]: 6.04%

COc1ccc([C@@H](O)c2cc(-c3ncnc4cc(N5CCOCC5)ccc34)c(F)cc2Cl)nn1 + COC1C(OC(N)=O)C(O)C(Oc2ccc3c(O)c(NC(=O)c4ccc(O)c(CC=C(C)C)c4)c(=O)oc3c2C)OC1(C)C
IC50 (second compound 0.0316 µM): 3.07 µM
IC50 (second compound 0.1 µM): 3.33 µM
IC50 (second compound 0.316 µM): 3.95 µM
IC50 (second compound 1 µM): 3 µM
IC50 (second compound 3.16 µM): 3.78 µM
IC50 (second compound 10 µM): 3.64 µM
viability, T/C [1]: 99.5%
viability, T/C [2]: 89.1%
viability, T/C [3]: 94.5%
viability, T/C [4]: 85.6%
viability, T/C [5]: 49.1%
viability, T/C [6]: 8.54%
viability, T/C [7]: 96.2%
viability, T/C [8]: 87.7%
viability, T/C [9]: 100%
viability, T/C [10]: 87.2%
viability, T/C [11]: 51.9%
viability, T/C [12]: 10.8%
viability, T/C [13]: 109%
viability, T/C [14]: 101%
viability, T/C [15]: 99.4%
viability, T/C [16]: 85.4%
viability, T/C [17]: 60%
viability, T/C [18]: 9.63%
viability, T/C [19]: 103%
viability, T/C [20]: 96.8%
viability, T/C [21]: 92.5%
viability, T/C [22]: 76.4%
viability, T/C [23]: 48.7%
viability, T/C [24]: 9.8%
viability, T/C [25]: 96.6%
viability, T/C [26]: 102%
viability, T/C [27]: 91.1%
viability, T/C [28]: 93.4%
viability, T/C [29]: 57%
viability, T/C [30]: 11.2%
viability, T/C [31]: 107%
viability, T/C [32]: 107%
viability, T/C [33]: 95.3%
viability, T/C [34]: 78.3%
viability, T/C [35]: 59.3%
viability, T/C [36]: 8.07%

COc1cccc2c1C(=O)c1c(O)c3c(c(O)c1C2=O)CC(O)(C(=O)CO)CC3OC1CC(N)C(O)C(C)O1 (stereo not drawn) + COC1C(OC(N)=O)C(O)C(Oc2ccc3c(O)c(NC(=O)c4ccc(O)c(CC=C(C)C)c4)c(=O)oc3c2C)OC1(C)C
IC50 (second compound 0.0316 µM): 0.0411 µM
IC50 (second compound 0.1 µM): 0.0364 µM
IC50 (second compound 0.316 µM): 0.0482 µM
IC50 (second compound 1 µM): 0.0376 µM
IC50 (second compound 3.16 µM): 0.0346 µM
IC50 (second compound 10 µM): 0.034 µM
viability, T/C [1]: 60.4%
viability, T/C [2]: 13.3%
viability, T/C [3]: 14.5%
viability, T/C [4]: 0.23%
viability, T/C [5]: 0.15%
viability, T/C [6]: 0.13%
viability, T/C [7]: 55.3%
viability, T/C [8]: 15.8%
viability, T/C [9]: 12.3%
viability, T/C [10]: 0.13%
viability, T/C [11]: 0.08%
viability, T/C [12]: 0.1%
viability, T/C [13]: 68.8%
viability, T/C [14]: 14.4%
viability, T/C [15]: 14.2%
viability, T/C [16]: 0.13%
viability, T/C [17]: 0.12%
viability, T/C [18]: 0.12%
viability, T/C [19]: 56.3%
viability, T/C [20]: 16.2%
viability, T/C [21]: 12.7%
viability, T/C [22]: 0.13%
viability, T/C [23]: 0.16%
viability, T/C [24]: 0.48%
viability, T/C [25]: 53.5%
viability, T/C [26]: 15.6%
viability, T/C [27]: 11.9%
viability, T/C [28]: 0.14%
viability, T/C [29]: 0.18%
viability, T/C [30]: 0.3%
viability, T/C [31]: 52.8%
viability, T/C [32]: 14%
viability, T/C [33]: 14.8%
viability, T/C [34]: 0.24%
viability, T/C [35]: 0.29%
viability, T/C [36]: 0.22%

From PubChem BioAssay AID1963845 (Molecular Pharmacology Branch, DTP, NCI, 2024)
